Patent publication US20070243161A1, “Epigenetic modification of the loci for CAMTA1 and/or FOXP3 as a marker for cancer treatment” (priority 2006, published 2007)

How the values were obtained:
[1] = test system: Foxp3; experiment: Intracellular Foxp3 expression by FACS in TGF-β-cultured CD25-CD4+ T cells; format: cell-based, BALB/c mice
Procedure: Cytometric analysis was performed as previously described (Huehn, J. et al. Developmental stage, phenotype and migration distinguish naive- and effector/memory-like CD4+ regulatory T cells. J Exp Med 199, 303-313 (2004)) using a FACS Calibur or a LSRII (BD Biosciences) and the CellQuest™ software. Dead cells were excluded by PI (propidium iodide) or DAPI (diamidophenylindole) staining (Sigma). Intracellular Foxp3 staining was performed with the PE anti-mouse Foxp3 staining set according to the manufacturers instructions.
D4+ T cells were isolated from pooled spleen and LN single cell suspensions by using anti CD4-FITC plus anti FITC multisort microbeads and the AutoMACS magnetic separation system (Miltenyi Biotec). After release of beads according to the manufacturer's instructions, CD25+ cells were depleted by using anti CD25-APC plus anti APC microbeads. To avoid the expansion of pre-committed Foxp3+ Tregs, the inventors excluded the majority of residual Foxp3+ Tregs from the CD25−CD4+ T cell fraction by sorting for CD62L^high cells using anti CD62L microbeads. MACS-sorted CD62L^highCD25−CD4+ T cells were stimulated for 3 days using plate bound anti CD3 (6 μg/ml) and anti CD28 (4 μg/ml). For Th1 cultures 5 μg/ml anti-IL-4, 20 ng/ml IFN-γ and 5 ng/ml IL-12 was added to the medium. […] Foxp3 expression of sorted CD25+ cells was analyzed by intracellular staining. […]

[2] = test system: foxp3 locus; experiment: Bisulphite sequencing of the foxp3 locus in CD25-CD4+ T cells cultured with TGF-β; format: cell-based, BALB/c mice
Source text: D4+ T cells were isolated from pooled spleen and LN single cell suspensions by using anti CD4-FITC plus anti FITC multisort microbeads and the AutoMACS magnetic separation system (Miltenyi Biotec). After release of beads according to the manufacturer's instructions, CD25+ cells were depleted by using anti CD25-APC plus anti APC microbeads. To avoid the expansion of pre-committed Foxp3+ Tregs, the inventors excluded the majority of residual Foxp3+ Tregs from the CD25−CD4+ T cell fraction by sorting for CD62L^high cells using anti CD62L microbeads. MACS-sorted CD62L^highCD25−CD4+ T cells were stimulated for 3 days using plate bound anti CD3 (6 μg/ml) and anti CD28 (4 μg/ml). For Th1 cultures 5 μg/ml anti-IL-4, 20 ng/ml IFN-γ and 5 ng/ml IL-12 was added to the medium. For TGF-β cultures 5 ng/ml TGF-β and 10 ng/ml IL-2 was used. After 3 days, cells were removed from the stimulus, transferred to non-coated plates and cultured for another 3 days. All cell culture was done with RPMI 1640 (Gibco) supplemented with 10% FCS (Sigma). On day 6, cultured cells were stained using anti CD25-APC and sorted for CD25+ cells by FACS (Aria). Foxp3 expression of sorted CD25+ cells was analyzed by intracellular staining. For restimulation experiments sorted CD25+ cells were stimulated for 3 days using plate bound anti CD3 (6 μg/ml) and anti CD28 (4 μg/ml) plus IL-2 (10 ng/ml). After 3 days, cells were removed from the stimulus, transferred to non-coated plates and cultured for another 3 days. On day 6, cultured cells were stained for CD25 and Foxp3 as described above.
Genomic DNA was isolated from purified T cells using the DNeasy tissue kit (Qiagen) following the supplier's recommendations. Sodium bisulphite treatment of genomic DNA was performed according to Olek et al. (Olek, A., Oswald, J. and Walter, J. A modified and improved method for bisulphite based cytosine methylation analysis. Nucleic Acids Res 24, 5064-6 (1996)) with minor modifications, resulting in the deamination of unmethylated cytosines to uracil, whereas methylated cytosines remain unchanged. In a subsequent PCR amplification uracils were replicated as thymidines. Thus, detection of a “C” in sequencing reactions reflects methylation of the genomic DNA at that site. Detection of a “T” at the same site instead reflects the absence of a methyl modification of the genomic cytosine.
PCRs were performed on MJ Research thermocyclers (Waltham) in a final volume of 25 μl containing 1×PCR Buffer, 1 U Taq DNA polymerase (Qiagen), 200 μM dNTPs, 12.5 pmol each of forward and reverse primers, and 7 ng of bisulphite-treated genomic DNA. The amplification conditions were 95° C. for 15 min and 40 cycles of 95° C. for 1 min, 55° C. for 45 sec and 72° C. for 1 min and a final extension step of 10 min at 72° C. PCR products were purified using ExoSAP-IT USB Corp.) and sequenced in both directions applying the PCR primers and the ABI Big Dye Terminator v1.1 cycle sequencing chemistry (Applied Biosystems) followed by capillary electrophoresis on an ABI 3100 genetic analyzer. Trace files were interpreted using ESME, which normalizes sequence traces, corrects for incomplete bisulphite conversion and allows for quantification of methylation signals (Lewin, J., Schmitt, A. O., Adorjan, P., Hildmann, T. and Piepenbrock, C. Quantitative DNA methylation analysis based on four-dye trace data from direct sequencing of PCR amplificates. Bioinformatics 20, 3005-12 (2004)). For each sample both PCR amplification and sequencing was repeated once. The following primers (5′ to 3′ direction) were used for both PCR amplification of bisulphite converted genomic DNA and sequence reactions: […]

[3] = cell culture in the presence of TGF-β
[4] = sorted CD25+ cells, day 6 TGF-β culture, exp. 1
[5] = sorted CD25+ cells, day 6 TGF-β culture, exp. 2

TGF-β: cytokine (R and D Systems) added at 5 ng/ml with IL-2 to induce Foxp3+ Tregs from CD25-CD4+ T cells
Foxp3+ cells among TGF-β-cultured cells ([1]; CD25-CD4+ T cells activated and cultured 6 days with TGF-β, day 6): > 98% | Foxp3 expression after restimulation ([1]; TGF-β-induced Tregs restimulated 6 days in the absence of TGF-β): lost Foxp3 expression | methylation of CpG motifs in amplicons 3 and 4 [2, 3]: fully methylated | methylation of CpG motifs within region covered by amplicons 1 and 2 [2, 3]: clearly visible demethylation | degree of methylation, CpG motif amplicon 1 (158) [2, 4]: 100% | degree of methylation, CpG motif amplicon 1 (180) [2, 4]: 92% | degree of methylation, CpG motif amplicon 1 (308) [2, 4]: 63% | degree of methylation, CpG motif amplicon 1 (344) [2, 4]: 41% | degree of methylation, CpG motif amplicon 1 (360) [2, 4]: 60% | degree of methylation, CpG motif amplicon 1 (394) [2, 4]: 28% | degree of methylation, CpG motif amplicon 1 (421) [2, 4]: 42% | degree of methylation, CpG motif amplicon 1 (426) [2, 4]: 48% | degree of methylation, CpG motif amplicon 2 (205) [2, 4]: 74% | degree of methylation, CpG motif amplicon 2 (224) [2, 4]: 72% | degree of methylation, CpG motif amplicon 2 (228) [2, 4]: 100% | degree of methylation, CpG motif amplicon 2 (236) [2, 4]: 75% | degree of methylation, CpG motif amplicon 2 (298) [2, 4]: 64% | degree of methylation, CpG motif amplicon 2 (368) [2, 4]: 39% | degree of methylation, CpG motif amplicon 3 (93) [2, 4]: 100% | degree of methylation, CpG motif amplicon 3 (170) [2, 4]: 100% | degree of methylation, CpG motif amplicon 3 (173) [2, 4]: 100% | degree of methylation, CpG motif amplicon 3 (176) [2, 4]: 100% | degree of methylation, CpG motif amplicon 3 (281) [2, 4]: 100% | degree of methylation, CpG motif amplicon 4 (69) [2, 4]: 100% | degree of methylation, CpG motif amplicon 4 (311) [2, 4]: 100% | degree of methylation, CpG motif amplicon 4 (315) [2, 4]: 100% | degree of methylation, CpG motif amplicon 4 (319) [2, 4]: 100% | degree of methylation, CpG motif amplicon 4 (338) [2, 4]: 90% | degree of methylation, CpG motif amplicon 4 (371) [2, 4]: 100% | degree of methylation, CpG motif amplicon 1 (158) [2, 5]: 100% | degree of methylation, CpG motif amplicon 1 (180) [2, 5]: 93% | degree of methylation, CpG motif amplicon 1 (308) [2, 5]: 75% | degree of methylation, CpG motif amplicon 1 (344) [2, 5]: 41% | degree of methylation, CpG motif amplicon 1 (360) [2, 5]: 70% | degree of methylation, CpG motif amplicon 1 (394) [2, 5]: 38% | degree of methylation, CpG motif amplicon 2 (205) [2, 5]: 67.5% | degree of methylation, CpG motif amplicon 2 (224) [2, 5]: 75% | degree of methylation, CpG motif amplicon 2 (228) [2, 5]: 90% | degree of methylation, CpG motif amplicon 2 (236) [2, 5]: 66% | degree of methylation, CpG motif amplicon 2 (298) [2, 5]: 43% | degree of methylation, CpG motif amplicon 2 (368) [2, 5]: 50% | degree of methylation, CpG motif amplicon 3 (170) [2, 5]: 100% | degree of methylation, CpG motif amplicon 3 (173) [2, 5]: 100% | degree of methylation, CpG motif amplicon 3 (176) [2, 5]: 100% | degree of methylation, CpG motif amplicon 3 (281) [2, 5]: 96% | degree of methylation, CpG motif amplicon 4 (69) [2, 5]: 100% | degree of methylation, CpG motif amplicon 4 (311) [2, 5]: 100% | degree of methylation, CpG motif amplicon 4 (315) [2, 5]: 100% | degree of methylation, CpG motif amplicon 4 (319) [2, 5]: 100% | degree of methylation, CpG motif amplicon 4 (338) [2, 5]: 100% | degree of methylation, CpG motif amplicon 4 (371) [2, 5]: 100%
